In patent EP0754455A1, “PHARMACEUTICAL COMPOSITIONS BASED ON AMINOMETHYLINDOLES AND THEIR THERAPEUTICAL APPLICATION AS NEUROPROTECTORS IN PARKINSON AND ALZHEIMER DISEASES” (CONSEJO SUPERIOR INVESTIGACIONES CIENTIFICAS (CSIC), priority 1995, dated 1996):
Like-named read-outs stand apart in the source and are kept apart here.

Legend:
[1] = target: T1, MAO-A (Rattus norvegicus, UniProt P21396); experiment: biochemical; assay type: biochemical, Sprague-Dawley rat
T1 construct: human and rat tissue to obtain the isolated forms of monoamine oxidase A and B; from tissue
T1 sequence (P21396 1-526): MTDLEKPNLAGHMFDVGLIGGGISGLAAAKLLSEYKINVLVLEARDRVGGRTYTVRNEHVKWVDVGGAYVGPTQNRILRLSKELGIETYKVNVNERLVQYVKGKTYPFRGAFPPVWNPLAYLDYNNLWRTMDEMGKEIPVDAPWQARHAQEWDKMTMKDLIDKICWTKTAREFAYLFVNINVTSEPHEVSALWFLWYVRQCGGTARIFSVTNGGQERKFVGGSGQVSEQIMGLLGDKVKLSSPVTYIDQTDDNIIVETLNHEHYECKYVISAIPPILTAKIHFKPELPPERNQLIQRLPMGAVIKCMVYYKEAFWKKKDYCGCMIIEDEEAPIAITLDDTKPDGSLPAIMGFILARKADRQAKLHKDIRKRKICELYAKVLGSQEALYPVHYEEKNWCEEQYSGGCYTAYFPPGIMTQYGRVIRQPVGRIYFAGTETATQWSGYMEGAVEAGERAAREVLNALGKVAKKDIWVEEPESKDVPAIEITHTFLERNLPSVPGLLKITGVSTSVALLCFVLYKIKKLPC
Description: The mitochondrial portion of Sprague-Dawley rat was used to determine the MAO-A and MAO-B activity.
Determinations were made of the comparative MAO-A and MAO-B activity inhibition curves of the various compounds under study at time 0 and 30 min. by measuring the remaining activity to 5-HT and PEA as substrates.

[2] = target: T2, MAO-B (Homo sapiens, UniProt P27338); experiment: MAO-B inhibition in homogenated human cerebral cortex; assay type: biochemical
T2 construct: performed using homogenated human cerebral cortex obtained from autopsies; from tissue; host or cells: post-mortem human cerebral cortex homogenate
T2 sequence (P27338 1-520): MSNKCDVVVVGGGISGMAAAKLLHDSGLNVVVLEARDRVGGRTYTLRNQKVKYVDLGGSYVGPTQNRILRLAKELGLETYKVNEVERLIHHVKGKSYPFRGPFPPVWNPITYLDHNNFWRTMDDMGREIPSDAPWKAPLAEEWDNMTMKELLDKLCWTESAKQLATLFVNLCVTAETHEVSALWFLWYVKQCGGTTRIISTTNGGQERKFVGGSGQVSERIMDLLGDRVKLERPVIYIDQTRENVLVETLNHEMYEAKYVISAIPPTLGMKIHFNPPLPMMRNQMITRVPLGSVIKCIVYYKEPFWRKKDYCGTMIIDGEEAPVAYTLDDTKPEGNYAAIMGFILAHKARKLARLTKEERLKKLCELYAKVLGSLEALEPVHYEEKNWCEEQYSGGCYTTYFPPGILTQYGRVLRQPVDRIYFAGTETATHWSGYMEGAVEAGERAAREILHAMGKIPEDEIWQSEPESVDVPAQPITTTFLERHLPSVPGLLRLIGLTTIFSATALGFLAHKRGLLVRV
Excerpt: They were provided by Dr. Fco Javier González Oliván (Forensic Anatomic Institute of the Hospital Clínico Provincial in Barcelona).

`C#CCNCc1cc2cc(OCc3ccccc3)ccc2[nH]1` [FA-73] was tested, and the IC50 [1] was 15.8 µM, the “dependence of the inhibition on the incubation time” value ([1]; MAO-A) was “drop in the formation of product as a function of the time of incubation” and the “irreversibility of the inhibition process” value ([1]; MAO-A, inhibitor concentrations close to the IC50) was “irreversibility”. The IC50 ([1]; read-out: IC50 30 min., MAO-A (lines A..), substrate 5-HT, 30 min incubation, rat mitochondria) was 1.25 µM and the IC50 [2] was 0.2 µM.
